Assay results as given in ChEMBL document CHEMBL3046308, “Synthesis of phenoxyphenyl pyridine and pyrazine carboxamides. Activity against Cydia pomonella (L.) eggs” (2000).

Legend:
Format in all cases: functional
Cydia pomonella [1] = assay: Ovicidal activity against 24 hr old Cydia pomonella (codling moth) eggs assessed as mortality at 5 mg/ml sprayed at 19 +/- 1 degC
Cydia pomonella [2] = assay: Ovicidal activity against 24 hr old Cydia pomonella (codling moth) eggs assessed as development period at 5 mg/ml sprayed at 19 +/- 1 degC
Cydia pomonella [3] = assay: Ovicidal activity against 24 hr old Cydia pomonella (codling moth) eggs assessed as efficacy at 5 mg/ml sprayed at 19 +/- 1 degC

| SMILES | mortality at 5000 µg/mL (Cydia pomonella [1]) | Time (Cydia pomonella [2]) | Efficacy (Cydia pomonella [3]) |
| --- | --- | --- | --- |
| C=CCOC(=O)Nc1ccc(Oc2ccc(N)cc2)cc1 | 48.1% | 11.3 days | 35% |
| C=CCOC(=O)Nc1ccc(Oc2ccc(NC(=O)c3ccccn3)cc2)cc1 | 40.7% | 11.1 days | 27.2% |
| C=CCOC(=O)Nc1ccc(Oc2ccc(NC(=O)c3cccnc3)cc2)cc1 | 34.4% | 10.2 days | – |
| C=CCOC(=O)Nc1ccc(Oc2ccc(NC(=O)c3ccncc3)cc2)cc1 | 53.8% | 11.7 days | 42.5% |
| C=CCOC(=O)Nc1ccc(Oc2ccc(NC(=O)c3cnccn3)cc2)cc1 | 25.3% | 9.5 days | – |
| O=C(Nc1ccc(Oc2ccccc2)cc1)c1ccncc1 | 33.4% | 10 days | – |
| O=C(Nc1ccc(Oc2ccccc2)cc1)c1cnccn1 | 29.2% | 9.7 days | – |
| CC(=O)Nc1ccc(Oc2ccc(NC(=O)c3ccccn3)cc2)cc1 | 67.3% | 10.9 days | 47.1% |
| CC(=O)Nc1ccc(Oc2ccc(NC(=O)c3cccnc3)cc2)cc1 | 57.6% | 10.6 days | – |
| CC(=O)Nc1ccc(Oc2ccc(NC(=O)c3ccncc3)cc2)cc1 | 52.7% | 10.1 days | – |
| CC(=O)Nc1ccc(Oc2ccc(NC(=O)c3cnccn3)cc2)cc1 | 68.4% | 11 days | 49.1% |
| O=C(Nc1ccc(Oc2ccccc2)cc1)c1cccnc1 | 40.9% | 10.6 days | 26.3% |
| O=C(Nc1ccc(Oc2ccccc2)cc1)c1ccccn1 | 52.4% | 10.8 days | 40.7% |
| CCOC(=O)NCCOc1ccc(Oc2ccccc2)cc1 [PHENOXYCARB] | 99.3% | – | 99.1% |
